In ChEMBL document CHEMBL4004829, “Synthesis and antiproliferative activity of a series of novel 6-substituted pyrido[3,2-d]pyrimidines as potential nonclassical lipophilic antifolates targeting dihydrofolate reductase” (Eur J Med Chem, 2017) one finds IC50 and Activity data, which are given here for 23 compounds.

The subject of test [1] is HL-60. The test is described as follows: Antiproliferative activity against human HL60 cells after 48 hrs by MTS assay. It counts as functional, cell-based. Particulars: HL-60, 48 h. For orientation: Tetrazolium assays rely on reduction of a dye to a coloured formazan, in cell work by metabolically active cells.
The next test concerns HeLa. The test is described as follows: cells. The settings on record: Homo sapiens, 48 h.
In a further test the test system is A549. The test is described as follows: Antiproliferative activity against human A549 cells after 48 hrs by MTS assay. The format is functional, cell-based. The settings on record: A549, 48 h.
For the next test, the system named is NCI-H1299. Nature of the test: Antiproliferative activity against human NCI-H1299 cells after 48 hrs by MTS assay. The format is functional, cell-based. The settings on record: NCI-H1299, 48 h.
For a further test, the target named is T1, Dihydrofolate reductase (Homo sapiens, UniProt P00374).
T1 sequence (P00374 whole entry): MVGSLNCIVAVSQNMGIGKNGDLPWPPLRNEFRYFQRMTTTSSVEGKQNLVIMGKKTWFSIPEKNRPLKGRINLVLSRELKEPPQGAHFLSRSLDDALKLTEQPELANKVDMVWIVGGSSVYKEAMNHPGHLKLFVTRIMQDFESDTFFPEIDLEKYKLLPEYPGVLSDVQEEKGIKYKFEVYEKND
The test is described as follows: Inhibition of recombinant human DHFR using dihydrofolate as substrate after 15 mins in presence of NADPH.

In test [2] the test system is HL-60. The test is described as follows: Cell cycle arrest in human HL60 cells assessed as G2/M phase at 0.05 uM after 24 hrs by propidium iodide staining based flow cytometry (reference value: 12.2 +/- 1.1%). It counts as functional. Background: In flow cytometry, cells or beads pass a laser one at a time.
In test [3] the test system is HL-60. The test is described as follows: Cell cycle arrest in human HL60 cells assessed as G2/M phase at 0.2 uM after 24 hrs by propidium iodide staining based flow cytometry (reference value: 12.2 +/- 1.1%). It counts as functional.
For test [4], the system named is HL-60. The test is described as follows: Cell cycle arrest in human HL60 cells assessed as G1 phase at 0.8 uM after 24 hrs by propidium iodide staining based flow cytometry (reference value: 29.1 +/- 0.5%). It counts as functional.
Test [5] deals with HL-60. The test is described as follows: Cell cycle arrest in human HL60 cells assessed as S phase at 0.4 uM after 24 hrs by propidium iodide staining based flow cytometry (reference value: 58.7 +/- 0.8%). It counts as functional.
The subject of test [6] is HL-60. The test is described as follows: Cell cycle arrest in human HL60 cells assessed as G1 phase at 0.4 uM after 24 hrs by propidium iodide staining based flow cytometry (reference value: 29.1 +/- 0.5%). The format is functional.
Test [7] deals with HL-60. Nature of the test: Cell cycle arrest in human HL60 cells assessed as S phase at 0.8 uM after 24 hrs by propidium iodide staining based flow cytometry (reference value: 58.7 +/- 0.8%). The format is functional.
The subject of test [8] is HL-60. Nature of the test: Cell cycle arrest in human HL60 cells assessed as G1 phase at 0.2 uM after 24 hrs by propidium iodide staining based flow cytometry (reference value: 29.1 +/- 0.5%). It counts as functional.
Test [9] has as its system HL-60. The test is described as follows: Cell cycle arrest in human HL60 cells assessed as G2/M phase at 0.8 uM after 24 hrs by propidium iodide staining based flow cytometry (reference value: 12.2 +/- 1.1%). It counts as functional.
Test [10] concerns HL-60. Nature of the test: Cell cycle arrest in human HL60 cells assessed as S phase at 0.05 uM after 24 hrs by propidium iodide staining based flow cytometry (reference value: 58.7 +/- 0.8%). The format is functional.
Test [11] relates to HL-60. The test is described as follows: Cell cycle arrest in human HL60 cells assessed as G2/M phase at 0.1 uM after 24 hrs by propidium iodide staining based flow cytometry (reference value: 12.2 +/- 1.1%). The format is functional.
Test [12] has as its system HL-60. The test is described as follows: Cell cycle arrest in human HL60 cells assessed as G1 phase at 0.1 uM after 24 hrs by propidium iodide staining based flow cytometry (reference value: 29.1 +/- 0.5%). The format is functional.
Test [13] has as its system HL-60. Nature of the test: Cell cycle arrest in human HL60 cells assessed as S phase at 0.1 uM after 24 hrs by propidium iodide staining based flow cytometry (reference value: 58.7 +/- 0.8%). It counts as functional.
The test system of test [14] is HL-60. The test is described as follows: Cell cycle arrest in human HL60 cells assessed as S phase at 0.2 uM after 24 hrs by propidium iodide staining based flow cytometry (reference value: 58.7 +/- 0.8%). It counts as functional.
In test [15] the test system is HL-60. The test is described as follows: Cell cycle arrest in human HL60 cells assessed as G1 phase at 0.05 uM after 24 hrs by propidium iodide staining based flow cytometry (reference value: 29.1 +/- 0.5%). The format is functional.
Test [16] has as its system HL-60. The test is described as follows: Cell cycle arrest in human HL60 cells assessed as G2/M phase at 0.4 uM after 24 hrs by propidium iodide staining based flow cytometry (reference value: 12.2 +/- 1.1%). The format is functional.

The structures appear in SMILES notation.

Description for HeLa: Antiproliferative activity against human HeLa cells after 48 hrs by MTS assay

For the compound `Nc1nc(N)c2nc(CCc3ccc(Br)cc3)ccc2n1`, the half-maximal inhibitory concentration (IC50) – broadly, the concentration needed to halve the response being measured – amounted to 0.12 µM in the test with HL-60 [1]; 4.3 µM with HeLa; 22.6 µM with A549; 1.49 µM in the test with NCI-H1299; 1.26 µM on Dihydrofolate reductase.
The like results for `COc1cccc(CCc2ccc3nc(N)nc(N)c3n2)c1` were, in that order, 0.42 µM, 14.3 µM, 14.4 µM, 7.03 µM and 0.45 µM.
As for `Nc1nc(N)c2nc(/C=C/c3ccc(Cl)cc3)ccc2n1`, the concentration for half-maximal inhibition (IC50) amounted to 3.8 µM in the test on HL-60 [1]; 7.6 µM in the test with HeLa; 8.17 µM in the test on A549; 9.39 µM with NCI-H1299; 16.9 µM at Dihydrofolate reductase.
The like results for `Nc1nc(N)c2nc(CCc3ccccc3)ccc2n1` were, in that order, 0.36 µM, 8.61 µM, 9.78 µM, 9.16 µM and 2.25 µM.
The like results for `Nc1nc(N)c2nc(/C=C/c3ccccc3)ccc2n1` were, in that order, 3.85 µM, 13.4 µM, 13.9 µM, 15.2 µM and 5.33 µM.
On to `CC(C)c1ccc(CCc2ccc3nc(N)nc(N)c3n2)cc1`, for which the IC50 with HL-60 [1] came out at 0.49 µM; in the test with HeLa it was 14 µM; with A549 it was 15.9 µM; at Dihydrofolate reductase it was 19 µM.
For `Nc1nc(N)c2nc(/C=C/c3ccc(Br)cc3)ccc2n1`, the half-maximal inhibitory concentration (IC50) is 2.51 µM in the test on HL-60 [1]; 9.2 µM in the test with HeLa; 11.9 µM in the test with A549; 6.19 µM with NCI-H1299; 14.8 µM at Dihydrofolate reductase.
For the compound `COc1cc(CCc2ccc3nc(N)nc(N)c3n2)cc(OC)c1OC`, the IC50 in the test with HL-60 [1] came out at 0.42 µM; in the test with HeLa it was 2.9 µM; with A549 it was 11.6 µM; in the test on NCI-H1299, 2.17 µM; at Dihydrofolate reductase it was 0.29 µM. Further, the Activity in the test with HL-60 [2] amounted to 10.7%; in the test on HL-60 [3], 6.6%; in the test on HL-60 [4], 10%; with HL-60 [5], 77.6%; in the test with HL-60 [6] it was 18%; in the test on HL-60 [7] it was 88.5%. The Activity in the test with HL-60 [8] was determined as 20.2%; in the test on HL-60 [9], 1.5%; in the test with HL-60 [10], 63%; in the test with HL-60 [11], 10%; with HL-60 [12] it was 25.7%; in the test with HL-60 [13] it was 64.3%. The Activity with HL-60 [14] stood at 73.2%; with HL-60 [15] it was 26.3%; in the test with HL-60 [16], 4.4%.
Consider `COc1ccccc1/C=C/c1ccc2nc(N)nc(N)c2n1`, for which the concentration for half-maximal inhibition (IC50) in the test with HL-60 [1] was found to be 3.6 µM; with HeLa, 13.8 µM; with A549 it was 7.56 µM; in the test on NCI-H1299 it was 8.63 µM; at Dihydrofolate reductase, 3.61 µM.
Turning to `CCc1ccc(/C=C/c2ccc3nc(N)nc(N)c3n2)cc1`, the IC50 with HL-60 [1] was determined as 1.19 µM; with HeLa, 9.86 µM; in the test with A549, 9.13 µM; with NCI-H1299, 4.86 µM; at Dihydrofolate reductase it was 5.28 µM.
In the case of `Cc1ccc(CCc2ccc3nc(N)nc(N)c3n2)cc1`, the IC50 in the test on HL-60 [1] came out at 0.31 µM; in the test with HeLa, 52.4 µM; in the test on A549, 34.1 µM; in the test on NCI-H1299, 1.61 µM; at Dihydrofolate reductase, 2.55 µM.
As for `Nc1nc(N)c2nc(CCc3ccc(Cl)cc3)ccc2n1`, the IC50 turned out to be 0.27 µM with HL-60 [1]; 5.3 µM in the test on HeLa; 16.3 µM in the test with A549; 1.06 µM with NCI-H1299; 2.84 µM on Dihydrofolate reductase.
The like results for `Nc1nc(N)c2nc(/C=C/c3ccc(F)cc3)ccc2n1` were, in that order, 2.61 µM, 7.98 µM, 6.78 µM, 5.99 µM and 4.78 µM.
The like results for `COc1cc(/C=C/c2ccc3nc(N)nc(N)c3n2)cc(OC)c1OC` were, in that order, 2.33 µM, 2.1 µM, 5.34 µM, 3.99 µM and 4 µM.
`COc1ccc(CCc2ccc3nc(N)nc(N)c3n2)cc1`: the 50% inhibitory concentration (IC50) in the test with HL-60 [1] is 0.072 µM; with HeLa, 10.5 µM; in the test on A549, 18 µM; with NCI-H1299, 2.15 µM; at Dihydrofolate reductase it was 0.71 µM.
On to `Cc1ccc(/C=C/c2ccc3nc(N)nc(N)c3n2)cc1`, for which the IC50 in the test with HL-60 [1] stood at 4.54 µM; in the test on HeLa it was 14.5 µM; with A549 it was 18.9 µM; on Dihydrofolate reductase, 3.19 µM.
For `COc1cccc(/C=C/c2ccc3nc(N)nc(N)c3n2)c1`, the IC50 in the test with HL-60 [1] turned out to be 2.03 µM; with HeLa, 18.8 µM; in the test on A549, 9.1 µM; in the test on NCI-H1299 it was 12.2 µM; on Dihydrofolate reductase, 4.13 µM.
Turning to `Nc1nc(N)c2nc(CCc3ccc(F)cc3)ccc2n1`, the half-inhibitory concentration (IC50) amounted to 0.58 µM in the test on HL-60 [1]; 54 µM in the test with HeLa; 4.98 µM with A549; 14.8 µM in the test with NCI-H1299; 0.95 µM at Dihydrofolate reductase.
Turning to `COc1ccc(/C=C/c2ccc3nc(N)nc(N)c3n2)cc1`, the half-inhibitory concentration (IC50) with HL-60 [1] was determined as 1.63 µM; in the test with HeLa it was 6.5 µM; in the test with A549, 5.68 µM; with NCI-H1299, 3.73 µM; at Dihydrofolate reductase, 4.34 µM.
On to `COc1ccccc1CCc1ccc2nc(N)nc(N)c2n1`, for which the IC50 is 0.8 µM in the test with HL-60 [1]; 10.4 µM with HeLa; 29.9 µM in the test with A549; 4.73 µM in the test on NCI-H1299; 1.67 µM on Dihydrofolate reductase.
As to `CC(C)c1ccc(/C=C/c2ccc3nc(N)nc(N)c3n2)cc1`, the IC50 with HL-60 [1] was 1.04 µM; in the test on HeLa, 10.5 µM; in the test with A549, 10.7 µM; in the test with NCI-H1299 it was 11.2 µM; on Dihydrofolate reductase it was 20.1 µM.
Take `CCc1ccc(CCc2ccc3nc(N)nc(N)c3n2)cc1`: the IC50 amounted to 0.21 µM in the test on HL-60 [1]; 49.4 µM with HeLa; 15.4 µM in the test with A549; 2.76 µM in the test with NCI-H1299; 2.48 µM at Dihydrofolate reductase.
With `O=c1[nH]cc(F)c(=O)[nH]1` [FLUOROURACIL], the 50% inhibitory concentration (IC50) with HL-60 [1] was 1.62 µM; in the test with HeLa, 62.2 µM; in the test on NCI-H1299, 8.91 µM.
